How the values were obtained:
Assay type in all cases: cell-based, Mycobacterium tuberculosis
DR1 (mmpl3, V681I) = system: DR1 (mmpl3, V681I)
88.1 (coaA, Q207R) = system: 88.1 (coaA, Q207R)
NTB1 (dprE1, G387S) = system: NTB1 (dprE1, G387S)
88.7 (pyrG, V186G) = system: 88.7 (pyrG, V186G)
53.3 (Rv2466c, W28S) = system: 53.3 (Rv2466c, W28S)
53.8 (Rv0579, L240V) = system: 53.8 (Rv0579, L240V)

Measured: MIC90

NNC(=O)c1ccncc1 [INH, Isoniazide]
0.025 µg/mL: all assays above

Source: publication PMC10583863 (European journal of medicinal chemistry, 2022)
